# From US20130165398A1, “CONCENTRATION-ENHANCING DRINK” (priority 2010, published 2013)
# Several values for one entry are separate records, joined by “and”; a condition that tells them apart may be missing. Identical values can stand only once. Entries after “also recorded” stand apart in the source; their conditions may differ.
# How the values were obtained:
# HeLa S3 cells [1] = assay: Cell viability by MTT assay, HeLa S3 cells; assay type: cell-based, human; details: for cell survival with substance as extracellular precursor: FK866, FIG. 3B
# Method: (§4) Inhibitors (2 μm FK866, 2 mM 3-AB, 10 μm NBTI, 2 μm dipyridamol, 2 mM CMP, 25 μm PPADS, 1 mM Ap4A) or metabolites (100 μM NAD^+, 100 μM NAAD, 100 μM NMN, 100 μM NAMN, 100 μM NA, 100 μM NR) were added to the cell culture medium as stated. […] The treatment with inhibitors and metabolites was carried out for 24-48 h before analysis of PAR formation and the viability of the cells (72 h for 293mitoPARP cells, 96 h for HeLa S3 cells and 120 h for HepG2 cells). The viability of the cells was determined by MTT assay.
# 293mitoPARP cells [2] = assay: Cell viability by MTT assay, 293mitoPARP cells; assay type: cell-based, human; details: for cell survival with substance as extracellular precursor: NamPRT inhibited by FK866, FIG. 3A
# Method: as §4
# [3] = Triple test method: synchronous gaze studies (Viewpointsystem vision analyses: gaze latencies, blinking, pupil adaptation); assay type: in vivo, human
# Method: (§1) Hereinafter the present invention is tested in the context of the Viewpointsystem® vision analyses, using standardized methods of investigation of the Vienna test system and using biomedical studies for stress research. In this method, in the vision laboratory, the triple test method is used with extremely high accuracy for evaluating psychophysical effects up to the degree of attention (cf. EP 1 300 108 A1, WO 2008/151346 A1).
# (§2) 12 subjects were subdivided into 3 groups each of 4 subjects:
# (§3) (1) drink according to the invention (150 mg of EGCG/20 mg of NR in 10 ml of H2O; “energy” or “energy-drink” group (2) EGCG alone (150 mg of EGCG; “green tea” group) (3) placebo (H2O and mannitol; “placebo” group)
# Using this test system, the changes in attention, vision behavior, reaction, activation and stress were determined in the three groups. In this process the real directions of gaze and gaze motions of subjects were determined in the course of the Vienna test system—in the reaction and determination test, and also in considering defined situation sequences (standardized preset image and film sequences with events) and for selected specific suitability tests—filmed and recorded from the respective field of view (cf. EP 1 300 108 A1, WO 2008/151346 A1). […]
# [4] = Triple test method: biomedical test battery (breathing rate, skin conductance level, heart rate), index of physiological/mental stress; assay type: in vivo, human
# Method: as §1, §2, §3
# The subjects were then studied systematically with respect to possible effects using the triple test study method, that is vps vision analyses—Vienna test system—biomedical test battery, in a standardized study, in such a manner that objective, statistically significant statements were made possible on the detection of concentration-enhancing activity of the drink according to the invention.
# In parallel thereto, the relevant biomedical characteristics such as skin conductivity, pulse were also detected and evaluated. In total, therefore, in the course of the triple-test studies, for all action-relevant evaluation situations, gaze studies were carried out in the gaze laboratory, the gaze behavior and reaction times were analyzed. The effects on information uptake, including information stress and fatigue, were documented using the standardized gaze methods by raster-analysis programs.
# After a baseline measurement, the study follows, wherein, inter alia, the following values are recorded: • heart frequency (HF: number of heart beats/minute) • blood volume pulse (BVP: measure of amount of blood which is pumped through the body per heart beat) • skin conductance value (SCL: skin conductance level/conductivity level, tonic measure, SCR: skin conductance response/phasic measure; reaction to individual stimuli)
# In the detailed analyses, at the same time the gaze and biomedical data of the study sequences [reaction test (singular stimuli), determination test (multiple optical, acoustic stimuli), film viewing (real sequences from driver viewpoint and film trailers) and semiotics (animal pictures and logos)] were evaluated. Particular attention was paid to the skin conductance level (SCL), the heart rate (pulse; HR) and the breathing rate (AF).
# After the physiological parameters were determined, for each section the statistical parameters mean/standard deviation/min/max/range/85% percentile were determined. In addition, the trend line equations were calculated.
# For further statistical detailed evaluation, the 85% percentile values were used and the relative differences were compiled using the before/after relationship. This change was totaled as a dimension number.
# After categorization of the subjects into 3 comparison groups, the dimension numbers were summed and represent an index of the physiological/mental stress of the subjects. The lower the number, the “more relaxed” the solving of the tasks by the subjects.
# NMNAT1 = assay: Expression of NMNAT1 after adding EGCG to human cells; assay type: cell-based; details: EGCG added to human cells
# 293mitoPARP cells [5] = assay: Mitochondrial NAD+ content by mitoPARP PAR formation, 293mitoPARP cells; assay type: cell-based, human; details: NamPRT inhibited by FK866, FIG. 3A
# Method: (§5) Inhibitors (2 μm FK866, 2 mM 3-AB, 10 μm NBTI, 2 μm dipyridamol, 2 mM CMP, 25 μm PPADS, 1 mM Ap4A) or metabolites (100 μM NAD^+, 100 μM NAAD, 100 μM NMN, 100 μM NAMN, 100 μM NA, 100 μM NR) were added to the cell culture medium as stated. […] The treatment with inhibitors and metabolites was carried out for 24-48 h before analysis of PAR formation and the viability of the cells (72 h for 293mitoPARP cells, 96 h for HeLa S3 cells and 120 h for HepG2 cells). The viability of the cells was determined by MTT assay. 293mitoPARP cells were prepared that express a fusion protein (“mitoPARP”), consisting of EGFP and PARP1cd (poly-ADP-ribose polymerase-1) which was targeted to the mitochondrial matrix. With mitochondrial NAD^+ as substrate, these cells generate protein-bound PAR (protein-bound poly-ADP ribose) constitutively, which is visualized immunochemically. Variations in the extent of the PAR detected thereby reflect changes in the mitochondrial NAD^+ content. Likewise, the transient expression of mitoPARP in HepG2 and HeLa S3 cells was used.
# HepG2 cells = details: FK866, FIG. 3C
# Method: Inhibitors (2 μm FK866, 2 mM 3-AB, 10 μm NBTI, 2 μm dipyridamol, 2 mM CMP, 25 μm PPADS, 1 mM Ap4A) or metabolites (100 μM NAD^+, 100 μM NAAD, 100 μM NMN, 100 μM NAMN, 100 μM NA, 100 μM NR) were added to the cell culture medium as stated. NR was prepared as described (Dölle et al., Anal, Biochem. 385 (2009), 377-379). The treatment with inhibitors and metabolites was carried out for 24-48 h before analysis of PAR formation and the viability of the cells (72 h for 293mitoPARP cells, 96 h for HeLa S3 cells and 120 h for HepG2 cells). The viability of the cells was determined by MTT assay.
# mitochondrial NAD^+ = assay: Mitochondrial NAD+ content by mitoPARP PAR formation, cell line not stated; assay type: cell-based, human; details: for mitochondrial PAR formation from the extracellular precursor on overexpression of NRK1: FIG. 6; for effect of the inhibitor on NR usage: NR as extracellular precursor, FIG. 4B; for function of NMN as extracellular NAD+ precursor in presence of the inhibitor: plasma membrane nucleoside transporter inhibitor added
# HeLa S3 cells [6] = assay: Mitochondrial NAD+ content by mitoPARP PAR formation, HeLa S3 cells; assay type: cell-based, human; details: FK866, FIG. 3B
# Method: as §5
# human cells = assay: Cell viability by MTT assay, cell line not stated; assay type: cell-based; details: NPP inhibitor added
# [7] = CMP competes with NMN for external 5'-nucleotidase
# [8] = semiotics (animal pictures and logos), group sum
smiles,measurement,setting,value
Nc1ccn([C@@H]2O[C@H](COP(=O)(O)O)[C@@H](O)[C@H]2O)c(=O)n1 [CMP],cell viability with NMN as precursor on addition of CMP,HeLa S3 cells [1]; [7],decreases the cell viability
same,cell viability with NMN as precursor on addition of CMP,293mitoPARP cells [2]; [7],decreases the cell viability
"O=C(O[C@@H]1Cc2c(O)cc(O)cc2O[C@@H]1c1cc(O)c(O)c(O)c1)c1cc(O)c(O)c(O)c1 [EGCG, (2R,3R)-2-(3,4,5-trihydroxyphenyl)-3,4-dihydro-1(2H)-benzopyran-3,5,7-triol 3-(3,4,5-trihydroxybenzoate)]",number of blinks,"[3]; all test methods, compared with Energy group",markedly lower
same,enhancement of gaze latencies in the after state,"[3]; real film sequences, before/after",low enhancements
same,"AF (breathing rate) dimension number, Total","[4]; RT+DT+Film+Animals, group sum",14.21
same,"HR (heart rate) dimension number, Total","[4]; RT+DT+Film+Animals, group sum",13.90
same,"SCL (skin conductance level) dimension number, Total","[4]; RT+DT+Film+Animals, group sum",17.79
same,dimension number TOTAL,"[4]; T1+T2, individual subject, lower = more relaxed, listed as Green tea group",10.25 and 12.53 and 12.39 and 10.78
same,"dimension number TOTAL, group Mean","[4]; T1+T2, mean of 4 subjects",11.49
same,"dimension number TOTAL, group Total","[4]; T1+T2, sum of 4 subjects",45.95
same,dimension number T1,"[4]; T1: Vienna test system: reaction test/determination test, individual subject, summed relative before/after differences of 85% percentile values, lower = more relaxed, listed as Green tea group",4.81 and 5.51 and 6.86 and 5.11
same,"dimension number T1, group Mean","[4]; T1: reaction test/determination test, mean of 4 subjects",5.57
same,"dimension number T1, group Total","[4]; T1: reaction test/determination test, sum of 4 subjects",22.29
same,dimension number T2,"[4]; T2: Viewing film sequences/trailers/logos/animals, individual subject, lower = more relaxed, listed as Green tea group",5.45 and 7.02 and 5.53 and 5.67
same,"dimension number T2, group Mean","[4]; T2: film sequences/trailers/logos/animals, mean of 4 subjects",5.92
same,"dimension number T2, group Total","[4]; T2: film sequences/trailers/logos/animals, sum of 4 subjects",23.67
same,"HR (heart rate) dimension number, DT","[4]; determination test, group sum",3.44
same,"SCL (skin conductance level) dimension number, DT","[4]; determination test, group sum",4.17
same,"AF (breathing rate) dimension number, DT","[4]; determination test, group sum, listed as Group 3",3.63 and 3.67
same,"AF (breathing rate) dimension number, Film","[4]; film viewing, group sum",3.90
same,"HR (heart rate) dimension number, Film","[4]; film viewing, group sum",3.61
same,"SCL (skin conductance level) dimension number, Film","[4]; film viewing, group sum",4.90
same,"AF (breathing rate) dimension number, RT","[4]; reaction test, group sum",3.58
same,"HR (heart rate) dimension number, RT","[4]; reaction test, group sum",3.42
same,"SCL (skin conductance level) dimension number, RT","[4]; reaction test, group sum",4.05
same,"AF (breathing rate) dimension number, Animals",[4]; [8],3.10
same,"HR (heart rate) dimension number, Animals",[4]; [8],3.49
same,"SCL (skin conductance level) dimension number, Animals",[4]; [8],4.67
same,performance ability for the problem solutions (ability to be stressed),"[4]; sum parameters, tendency, especially in the active test sequences",higher performance ability
same,increase of expression of NMNAT1,NMNAT1,40%
O=C(/C=C/c1cccnc1)NCCCCC1CCN(C(=O)c2ccccc2)CC1 [FK866],effect of FK866 on cell viability,HeLa S3 cells [1]; FIG. 3B,cell death
same,effect of FK866 on cell viability,293mitoPARP cells [2]; FIG. 3A,cell death
"O=C(O)c1cccnc1 [NA, nicotinic acid]",cell survival with substance as extracellular precursor,HeLa S3 cells [1],restoration of survival
same,cell survival with substance as extracellular precursor,293mitoPARP cells [2],able to restore
same,mitochondrial NAD+ content/formation with substance as extracellular precursor,293mitoPARP cells [5],able to restore
same,generation of mitochondrial NAD+ with substance as extracellular precursor,HepG2 cells,not able to provide support
same,survival/viability of the cell with substance as extracellular precursor,HepG2 cells,not able to provide support
"NC(=O)c1ccc[n+]([C@@H]2O[C@H](COP(=O)([O-])OP(=O)(O)OC[C@H]3O[C@@H](n4cnc5c(N)ncnc54)[C@H](O)[C@@H]3O)[C@@H](O)[C@H]2O)c1 [NAD^+, nicotinamide adenine dinucleotide]",mitochondrial PAR formation from the extracellular precursor on overexpression of NRK1,mitochondrial NAD^+,considerably improved
"O=C(O)c1ccc[n+]([C@@H]2O[C@H](COP(=O)(O)O)[C@@H](O)[C@H]2O)c1 [NAMN, nicotinic acid mononucleotide]",cell survival with substance as extracellular precursor,HeLa S3 cells [1],restoration of survival; also recorded: protect
same,cell survival with substance as extracellular precursor,293mitoPARP cells [2],able to restore; also recorded: protect
same,mitochondrial NAD+ formation with substance as extracellular precursor,HeLa S3 cells [6],support mitochondrial NAD^+ formation
same,mitochondrial NAD+ content/formation with substance as extracellular precursor,293mitoPARP cells [5],able to restore; also recorded: support mitochondrial NAD^+ formation
same,mitochondrial NAD+ generation of NAMN in presence of dipyridamol and NBTI,"mitochondrial NAD^+; compared with NMN, FIG. 4A","sensitive to these inhibitors, although less strongly"
O=[N+]([O-])c1ccc(CSc2ncnc3c2ncn3[C@@H]2O[C@H](CO)[C@@H](O)[C@H]2O)cc1 [NBTI],effect of the inhibitor on NR usage,mitochondrial NAD^+,inhibit the NR usage
same,function of NMN as extracellular NAD+ precursor in presence of the inhibitor,mitochondrial NAD^+; FIG. 4A,lost its function
"NC(=O)c1ccc[n+]([C@@H]2O[C@H](COP(=O)([O-])O)[C@@H](O)[C@H]2O)c1 [NMN, nicotinamide mononucleotide]",cell survival with substance as extracellular precursor,HeLa S3 cells [1],restoration of survival; also recorded: protect
same,cell survival with substance as extracellular precursor,293mitoPARP cells [2],able to restore; also recorded: protect
same,mitochondrial NAD+ formation with substance as extracellular precursor,HeLa S3 cells [6],support mitochondrial NAD^+ formation
same,mitochondrial NAD+ content/formation with substance as extracellular precursor,293mitoPARP cells [5],able to restore; also recorded: support mitochondrial NAD^+ formation
same,mitochondrial PAR formation from the extracellular precursor on overexpression of NRK1,mitochondrial NAD^+,dramatic increase
Cc1nc(N=Nc2ccc(S(=O)(=O)O)cc2S(=O)(=O)O)c(COP(=O)(O)O)c(C=O)c1O [PPADS],restoration of the mitochondrial NAD+ pool with NAD+ as extracellular precursor,"mitochondrial NAD^+; NPP inhibitor added, cell line not stated",prevents the restoration
same,survival of the cell with NAD+ as extracellular precursor,human cells,prevents the restoration
OCCN(CCO)c1nc(N2CCCCC2)c2nc(N(CCO)CCO)nc(N3CCCCC3)c2n1 [dipyridamol],effect of the inhibitor on NR usage,mitochondrial NAD^+,inhibit the NR usage
same,function of NMN as extracellular NAD+ precursor in presence of the inhibitor,mitochondrial NAD^+; FIG. 4A,lost its function
